Measurements from a melting point compilation (Tetko et al.; mined from patent text by program, amines drawn as free bases though some values may be those of a salt).

melting point | Structure (SMILES)
98 to 99 °C | CCCN(CCC)C(=O)CNc1nc(-c2ccccc2)nc(C(C)C)c1C
118 to 120 °C | NC(CO)(CO)CCc1ccc(C(=O)CCCCCc2ccccc2)cc1
111 to 115 °C | O=C(C[C@H](NC(=O)C(F)(F)F)C(=O)O)c1ccc2c(c1)Cc1ccccc1-2
144 °C | Clc1ncnc(Cl)c1-c1ccc(-c2ccccc2)cc1
62 to 63 °C | Cc1ccc(Cn2cc(CC(=O)O)c3cc(-c4ccc(OC(F)(F)F)cc4)ccc32)cc1
100 °C | CCc1nc(CC)c(CO)c(-c2ccccc2)c1CC
96.8 to 102 °C | CCCCc1nc(C)c(CC(=S)N(C)C)c(=O)n1Cc1ccc(-c2ccccc2-c2nnn[nH]2)cc1
60 to 63 °C | CSc1ccc(Oc2cccc(C=O)n2)cc1
> 320 °C | O=C(O)c1ccc(-c2n[nH]c3c2Cc2ccccc2-3)cc1
159 to 160 °C | CSC1=NC(C)C(c2ccccc2)=NN1 (stereo unspecified)
120 to 122 °C | OCc1nc(-c2ccc3c(c2)Nc2ccccc2S3)cs1
162 to 164 °C | Cc1ccccc1C(CCC(=O)O)Oc1cc(OCc2ccsc2)ccc1-c1cc(C(=O)O)on1 (racemic)
105 °C | COC(=O)c1cccc(NC(=O)c2ccccc2)c1O
151 °C | Nc1ccc(NC(=O)[C@@H](NC(=O)c2ccc(C(=O)O)cc2)c2ccccc2)cc1
46 °C | O[C@H](CCl)CN=Cc1ccccc1
87.5 to 88.5 °C | O=C1CCCC(c2ccccc2)N1c1ccc(F)cc1 (stereo unspecified)

melting point | Structure (SMILES)
255 to 257 °C | O=C(O)Cc1c(C(=O)O)c2cc(Oc3ccc(C(F)(F)F)cc3)ccc2n1-c1ccccc1
62 to 65 °C | CCCCCCCCCCCCCCCc1ccc(-c2nc(-c3ccccc3Cl)nn2C)cc1
160 to 163 °C | CC(C)Cn1cc(-c2ccc3nnn(Cc4ccc5ncccc5c4)c3n2)cn1
166 to 169 °C | C#CCOc1cccc(-n2c(-c3ccccc3)cc(=O)c(C)c2-c2ccccc2)c1
134 °C | CC(C)(C)NC(=O)c1ccc(S(=O)(=O)N2C(=O)C(C)(c3ccccc3Cl)c3cc(OCC(F)(F)F)ccc32)cc1 (stereo unspecified)
135 to 137 °C | CC(C)(C)c1ccc(N(Cc2cccc3ccccc23)c2ccccc2)cc1
179 °C | O=C(O)COc1ccc(S(=O)(=O)c2cccs2)c(Cl)c1Cl
82 to 83 °C | CCOC(=O)CCc1cn(Cc2cc(OCc3nc(-c4ccccc4)oc3C)no2)nc1OCC
115 to 117 °C | CC(=O)c1c(-c2ccc(OCCBr)c3ccccc23)oc2ccccc12
172 to 175 °C | Fc1ccc2c(c1)Oc1ccccc1-c1nc(SC(F)(F)C(F)F)[nH]c1-2
103 °C | COc1cc(C)nc(-c2cccc(-c3ccccc3C)n2)n1
160 to 161 °C | O=C(Oc1ccc(Oc2ccc(C(F)(F)F)cn2)cc1)N1CCN(c2cnccn2)CC1
125 to 133 °C | COc1ccc(-c2cc(COS(C)(=O)=O)c(=O)n(Cc3ccc(F)cc3)n2)cc1F
194 to 195 °C | CC(=O)NS(=O)(=O)c1ccc(C2=C(c3ccccc3)C(=O)C(C)(C)O2)cc1Cl
207 °C | Nc1ccc(C(=O)C(=O)c2ccc(N)cc2)cc1
286 to 291 °C | COc1ccc(-c2[nH]nc(C(=O)Oc3ccccc3)c2N)cc1

Continued, compound first:

Structure (SMILES) | melting point
O=[N+]([O-])c1ccc(-n2cncn2)cc1F | 90 to 91 °C
O=C(CCCC(=O)Oc1cc(O)cc(O)c1)Oc1cc(O)cc(O)c1 | 205 to 208 °C
CC1=NNC(=O)CC1c1ccc(OC2CCN(C(=O)OC(C)(C)C)CC2)cc1 (stereo unspecified) | 165 to 167 °C
Fc1ccc(-c2cncc(CN3CC=C(c4ccccc4)CC3)c2)cc1 | 128 to 129 °C
CC1(C)COC(=O)N1c1nc(-c2cccc(C#N)c2)cs1 | 181 to 183 °C
CCc1cc(CC)c2sc3ccccc3c(=O)c2c1 | 60 °C
NCCOc1ccc(CC2SC(=O)NC2=O)cc1 (stereo unspecified) | 175 to 176 °C
CC(=O)NCCC1CCCc2ccc(O)cc21 (stereo unspecified) | 153 to 155 °C
COc1cccc2c1CCC2C(=O)O (stereo unspecified) | 117 to 118 °C
CSC(=NCCSCc1[nH]cnc1C)NC#N | 148 to 150 °C
CC(=O)Oc1ccc(C=CC(=O)O)cc1Cl | 210 to 213 °C
CCNC(=O)Nc1snc(C)c1C(=O)OCC | 150 to 151 °C
CCOC(=O)C1=C(C)NC(COCc2cccnc2)=C(C(=O)OCC)C1c1ccccc1[N+](=O)[O-] (stereo unspecified) | 133 to 135 °C
COc1cc2c(c3c1OC(C)(C)C3)C(c1cccc(N3CCNC3=O)c1)=NC(C)(C)C2 | 225 to 227 °C
Cc1ccc(S(=O)(=O)CCC2OCCO2)cc1 | 78 to 80 °C
O=C(Cn1nc(Cl)nc1Cl)N1CCC(c2nc(C3=NOC(c4c(F)cccc4F)C3)cs2)CC1 (stereo unspecified) | 147 to 150 °C
N#Cc1c(NC(=O)CO)cccc1NC(=O)CO | 188 to 189 °C
CC(=O)NCC[C@@H]1CCc2ccc3nn(C)c(Cl)c3c21 | 168 to 171 °C
CC(=O)OC1CCC(c2ccccc2)CC1 (stereo unspecified) | 43 to 45 °C
Cc1cc(C)cc(-c2cc(C(=O)NCCCCCCCc3ccccc3)cc(-c3cc(C)cc(C)c3)c2OCCCC(=O)O)c1 | 64 to 66 °C

Structure (SMILES) | melting point
CCC(CC)N(Cc1ccc(C(=O)O)cn1)S(=O)(=O)c1ccc(F)cc1 | 145 to 147 °C
CCc1nc2c(c(C)c(C)n3nnnc23)n1CCOCCN | 181 to 183 °C
COc1ncccc1NC(=O)C1(O)CCCn2c1nc(-c1ccncn1)cc2=O (racemic) | 208 to 210 °C
CC(O)CNc1c(Br)cnc2cc(Cl)ccc12 (stereo unspecified) | 161 to 163 °C
Cc1c(F)c(=O)n(-c2cc(C(=O)OC(C)C)c(Cl)cc2F)c(=O)n1C | 112 to 115 °C
COC(=O)c1cccc(C2C(C(=O)c3ccc(OC)cc3)=C(O)C(=O)N2c2nnc(C)s2)c1 (stereo unspecified) | 218 °C
COc1c(F)cc2[nH]c(=O)c(=O)[nH]c2c1[N+](=O)[O-] | 290 to 292 °C
CCOC(=O)C1CCN(c2ccc([N+](=O)[O-])c(C=C3NC(=O)NC3=O)c2)CC1 | 221 to 223 °C
O=C1CCC(c2ccc3[nH]c(C(=O)O)cc3c2)=NN1 | 185 to 187 °C
CN(C(=O)Nc1ccc(Cl)c(Cl)c1)C(Cl)C(Cl)(Cl)Cl (stereo unspecified) | 132 to 140 °C
COc1ccc2c(c1OC)C(=O)O[C@@H]2[C@H]1c2c(c(I)c3c(c2OC)OCO3)CCN1C | 172 to 173 °C
Cc1nc(N2CCC(NCc3ccc(F)cc3)C2=O)sc1C(=O)NCc1ccc(F)cc1 (stereo unspecified) | 123 to 124 °C
CC(C)(C)OC(=O)NC(Cc1ccccc1)C(O)CNCC(O)C(Cc1ccc(OCc2ccccc2)cc1)NC(=O)OCc1ccccc1 (stereo unspecified) | 154 to 156 °C
CC(C)(Oc1ccc2c(c1)CCc1c-2ccc2c1CCC2(C)C)C(=O)O | 167 to 170 °C
CN1C(=O)Nc2ccccc2C1(O)C(=O)NC(N)=O (stereo unspecified) | > 280 °C
Cc1nc(NC(=O)NS(=O)(=O)c2ccccc2C(=O)O)nc2c1CCC2 | 183 to 184 °C
C=CC[C@H](C(N)=O)[C@@H](CC(C)C)C(=O)NC1N=C(c2ccccc2)c2cc(OC)ccc2N(C)C1=O (stereo partly specified) | 244 to 255 °C
CCCc1[nH]c2cc(C(N)=O)ccc2c1C(=O)COC | 165 to 167 °C
CCOC(=O)NC(=NCCCc1c[nH]cn1)NCCSCc1ccccn1 | 60 to 61 °C
